{"source": "patent EP0155623A2", "about": "“Use of lipoxygenase inhibitors for the preparations of cytoprotective pharmaceutical compostions and process for the preparation of a cytoprotective pharmaceutical composition” (Merck & Co., Inc., priority 1984, dated 1985)", "system": "ulcers in 24 hr. fasted S.D. rats", "assay": "Indomethacin-Induced Ulcer Assay (assay B)", "format": "in vivo", "details": "15 min prior to indomethacin 10 mg/kg p.o., stomach mucosae examined 4 hours later", "description": "B. Indomethacin-Induced Ulcer Assay\nIndomethacin, 10 mg/kg p.o., is used to induce ulcers in 24 hr. fasted S.D. rats. Fifteen minutes prior to indomethacin administration, groups of rats each receive either an aqueous vehicle (5% wt. methylcellulose) or the test compound at various doses perorally. Four hours later the animals are sacrificed and stomach-mucosae are examined for resulting ulcers.\nFollowing the procedure of assay B (Indomethacin-Induced Ulcer Assay), 4-bromo-2,7-dimethoxy-3H-phenothiazin-3-one was tested for ulcer inhibition. For Table 49-1, % Inhibition was calculated as: [formula]", "data": [{"smiles": "COc1ccc2nc3cc(OC)c(=O)c(Br)c-3sc2c1", "note": "[4-Bromo-2,7-dimethoxy-3H-phenothiazin-3-one]", "values": [{"measurement": "% Inhibition", "setting": "Dose 0.003 mg/kg perorally", "value": 38, "unit": "%"}, {"measurement": "% Inhibition", "setting": "Dose 0.01 mg/kg perorally", "value": 56, "unit": "%"}, {"measurement": "% Inhibition", "setting": "Dose 0.03 mg/kg perorally", "value": 69, "unit": "%"}, {"measurement": "% Inhibition", "setting": "Dose 0.1 mg/kg perorally", "value": 66, "unit": "%"}, {"measurement": "% Inhibition", "setting": "Dose 0.3 mg/kg perorally", "value": 70, "unit": "%"}, {"measurement": "% Inhibition", "setting": "Dose 3.0 mg/kg perorally", "value": 87, "unit": "%"}]}]}
